The text below walks through data of ChEMBL document CHEMBL1201862, “PubChem BioAssay data set” (2004).

Test systems include DLD-1; DMS-114; DMS-273; HOP-18; LXFL 529; M19-MEL; XF498; SNB-78; RXF 631.
What all share (assay): DTP human tumour cell line panel, 48 h

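Results reflect a 48-hour exposure of cells in 96-well plates to compound at five concentrations. GI50: concentration for 50% inhibition of growth.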 The source made the active and inactive calls. No stated cut-off is given here; in the data, active = GI50 up to about 1.1 µM and inactive = higher.

Broadly, the GI50 is the concentration at which growth is held to half of that of the control.

On to `C=CC(=O)NCNC(=O)C=C`, for which the GI50 in the assay on DLD-1, with DMS-114, with DMS-273, with HOP-18, in the assay on LXFL 529 and with M19-MEL was > 100 µM (inactive) in each case. Moreover, the GI50 in the assay with XF498 was > 100 µM (inactive).
As for `Cc1cc(Cl)ccc1NC(=O)C(=O)Cc1ccc([N+](=O)[O-])c([N+](=O)[O-])c1CC(=O)C(=O)Nc1ccc(Cl)cc1C`, the GI50 with DMS-114 was 60.4 µM (inactive); in the assay with DMS-273 it was > 100 µM (inactive); with HOP-18, > 100 µM (inactive); with LXFL 529, > 100 µM (inactive); with M19-MEL, > 100 µM (inactive); in the assay with SNB-78, > 100 µM (inactive). Moreover, in the assay with XF498, the GI50 is > 100 µM (inactive).
As for `Cc1nc(-n2nc(-c3ccccc3)cc2-c2ccccc2)sc1C(/C=C\c1ccc([N+](=O)[O-])cc1)=N/NC(=S)NN`, the GI50 in the assay on DLD-1 is 19.2 µM (inactive); with DMS-114 it was 37.4 µM (inactive); in the assay on LXFL 529 it was 47.3 µM (inactive); in the assay on M19-MEL, > 100 µM (inactive); in the assay with SNB-78, 70 µM (inactive).
For `CSc1cnc2ccccc2c1Sc1cn(C)c2ccccc2c1=O`, the GI50 with DLD-1 is > 100 µM (inactive); in the assay with DMS-114, 14.9 µM (inactive); with DMS-273, 21.6 µM (inactive); in the assay on HOP-18, 34 µM (inactive); in the assay on M19-MEL it was 56 µM (inactive); with RXF 631, 10 µM (inactive). In addition, in the assay with XF498, the GI50 is 21.9 µM (inactive).
As to `Cn1c2c(c3ccccc31)CCN(CCN1CCN(c3ccccc3)CC1)C2=O`, the GI50 was > 100 µM (inactive) with DLD-1; > 100 µM (inactive) in the assay on DMS-114; > 100 µM (inactive) in the assay with DMS-273; 55 µM (inactive) with HOP-18; > 100 µM (inactive) in the assay with LXFL 529; > 100 µM (inactive) with RXF 631. Also, in the assay with XF498, the GI50 is 22.2 µM (inactive).
For the compound `CCCCCCCCCCCCC(=O)OC(c1cnco1)c1nc(C(O)CC(O)C(O)C(C)O)co1` (centres undefined), the GI50 is 0.946 µM (active) in the assay on DLD-1; 0.18 µM (active) in the assay with DMS-114; 0.104 µM (active) with DMS-273; 3.48 µM (inactive) with HOP-18; 0.238 µM (active) in the assay with LXFL 529; 0.78 µM (active) in the assay with M19-MEL. Besides, the concentration for 50% growth inhibition (GI50) in the assay with XF498 was 0.627 µM (active).
In the case of `C=C1CC(C/C=C(\C)CC2CC(=C)C(=O)O2)OC1=O` (centres undefined), the GI50 in the assay on DLD-1, in the assay on DMS-114, with DMS-273, with HOP-18, in the assay on LXFL 529 and with M19-MEL was > 100 µM (inactive) in each case. Further, the GI50 in the assay on RXF 631, with SNB-78 and in the assay with XF498 was > 100 µM (inactive) throughout.
For `c1ccc(SC2CCSc3ccccc3C2Sc2ccccc2)cc1` (centres undefined), the GI50 in the assay on DLD-1 is > 100 µM (inactive); with DMS-114, > 10 µM (inactive); with DMS-273 it was > 100 µM (inactive); with LXFL 529, > 100 µM (inactive); in the assay with M19-MEL, > 10 µM (inactive); in the assay with SNB-78, > 100 µM (inactive). Besides, the GI50 in the assay on XF498 is > 100 µM (inactive).
Turning to `CC(C)(C)C[P+](C)(C)c1ccccc1`, the GI50 with DLD-1, in the assay on DMS-114, in the assay with DMS-273, in the assay with HOP-18, with LXFL 529 and with M19-MEL was > 100 µM (inactive) each time. Besides, the GI50 with RXF 631 and in the assay on SNB-78 was > 100 µM (inactive) throughout.
With `COC1=C(C)C(=O)C2=C(C1=O)C1C3CC4=C(C(=O)C(OC)=C(C)C4=O)C(CNC(=O)C(C)O)N3C(C#N)C(C2)N1C` (centres undefined), the GI50 in the assay on DLD-1, in the assay on DMS-114, with DMS-273, in the assay on HOP-18, with M19-MEL and in the assay with SNB-78 was < 0.01 µM (active) in each case. The concentration for 50% growth inhibition (GI50) in the assay with XF498 is < 0.01 µM (active).
As to `NS(=O)(=O)c1ccc(NC(=O)CC(=O)Nc2ccc(S(N)(=O)=O)cc2)cc1`, the GI50 in the assay on DLD-1, in the assay with DMS-114, in the assay with DMS-273, with HOP-18, in the assay with LXFL 529 and in the assay on M19-MEL was > 100 µM (inactive) throughout. Besides, in the assay with SNB-78, the GI50 is > 100 µM (inactive).
Take `CCN(CC)CC(=O)Nc1ccc2c(c1)C(=O)c1ccc(NC(=O)CN(CC)CC)cc1C2=O`: the GI50 in the assay with DLD-1 is 26.2 µM (inactive); with DMS-114, 20.4 µM (inactive); in the assay on DMS-273, 18.7 µM (inactive); in the assay with LXFL 529, 22.8 µM (inactive); with M19-MEL, > 100 µM (inactive); with SNB-78 it was 98.9 µM (inactive).
Consider `CCOC(=O)C1=C(C(=O)OCC)C2(c3ccccc3)N(O1)c1ccccc1C2(C)C` (centres undefined), for which the GI50 is 50 µM (inactive) with DLD-1; 23.3 µM (inactive) in the assay on HOP-18; 36.1 µM (inactive) with LXFL 529; 70.8 µM (inactive) in the assay with M19-MEL; 54.8 µM (inactive) in the assay on SNB-78.
As for `O=C1C2c3[nH]c4ccccc4c3C3CCC(c4ccccc4)CC3C2C(=O)N1c1ccccc1` (centres undefined), the GI50 in the assay on DLD-1, with DMS-114, with DMS-273, with HOP-18, in the assay with LXFL 529 and with M19-MEL was > 100 µM (inactive) throughout. Moreover, the GI50 is 28.6 µM (inactive) in the assay on SNB-78 and > 100 µM (inactive) in the assay on XF498.
On to `COc1cc(CNc2nc3c(N)cc(C(F)(F)F)cc3nc2-c2ccccc2)cc(OC)c1OC`, for which the GI50 is 31.8 µM (inactive) with DLD-1; 12.3 µM (inactive) with DMS-114; 37.8 µM (inactive) with DMS-273; > 10 µM (inactive) in the assay on HOP-18; 25.6 µM (inactive) with LXFL 529; 35.4 µM (inactive) in the assay on M19-MEL. In addition, the GI50 in the assay on RXF 631 is 44.3 µM (inactive); with SNB-78, > 10 µM (inactive); in the assay on XF498 it was 13.7 µM (inactive).
In the case of `c1nc(N2CC2)c2cnn(C3CCCCO3)c2n1` (centres undefined), the GI50 in the assay on DLD-1, in the assay on DMS-114, in the assay with DMS-273, in the assay on LXFL 529, in the assay on M19-MEL and with SNB-78 was > 100 µM (inactive) in each case. The GI50 with XF498 is > 100 µM (inactive).
Take `CCN(CC)CCNC(=O)c1ccc(C)c(OCc2ccccc2)c1[N+](=O)[O-]`: the GI50 is 34.3 µM (inactive) in the assay on DLD-1; 26.5 µM (inactive) with DMS-114; 23.6 µM (inactive) with DMS-273; > 100 µM (inactive) in the assay with HOP-18; 18 µM (inactive) in the assay on LXFL 529; 18.1 µM (inactive) in the assay with M19-MEL. In addition, the GI50 is 61.9 µM (inactive) in the assay on SNB-78 and 20.8 µM (inactive) in the assay on XF498.
`O=C(CCc1nnc(S)[nH]1)Nc1ccc(Cl)c(Cl)c1`: the GI50 was > 100 µM (inactive) in the assay with DLD-1; 23.5 µM (inactive) in the assay with DMS-114; 19.8 µM (inactive) in the assay on DMS-273; > 100 µM (inactive) with HOP-18; 13.2 µM (inactive) with LXFL 529; 43.6 µM (inactive) in the assay on M19-MEL. The GI50 was 72.3 µM (inactive) in the assay on RXF 631, > 100 µM (inactive) in the assay on SNB-78 and > 100 µM (inactive) in the assay on XF498.
In the case of `O=C1NC(=O)C(C(=O)C(=O)Nc2ccc(Br)cc2)C(=O)N1`, the GI50 in the assay on DLD-1, in the assay on DMS-114, in the assay with DMS-273, in the assay on HOP-18, with LXFL 529 and in the assay with M19-MEL was > 100 µM (inactive) throughout. Besides, the GI50 with RXF 631, with SNB-78 and with XF498 was > 100 µM (inactive) each time.
